# Test results: ChEMBL document CHEMBL3044707, “Synthesis of some new glutamine linked 2,3-disubstituted quinazolinone derivatives as potent antimicrobial and antioxidant agents” (Med Chem Res, 2013)
# Columns and labels:
# Assay type in all cases: functional
# Candida albicans [1] = experiment: Antimicrobial activity against Candida albicans NCIM 3102 assessed as diameter of growth inhibition zone at 100 ug/ml after 48 hr by paper disk diffusion method; details: NCIM 3102, 48 h, read-out: DIZ
# Candida albicans [2] = experiment: Antimicrobial activity against Candida albicans NCIM 3102 assessed as growth inhibition by agar streak dilution method
# Pseudomonas aeruginosa [3] = experiment: Antimicrobial activity against Pseudomonas aeruginosa NCIM 5029 assessed as diameter of growth inhibition zone at 100 ug/ml after 24 hr by paper disk diffusion method; details: NCIM 5029, 24 h, read-out: DIZ
# [4] = tested on: Radical scavenging activity; experiment: Antioxidant activity assessed as DPPH radical scavenging activity by visible spectrophotometric analysis
# Bacillus subtilis [5] = experiment: Antimicrobial activity against Bacillus subtilis NCIM 2999 assessed as growth inhibition by agar streak dilution method
# Staphylococcus aureus [6] = experiment: Antimicrobial activity against Staphylococcus aureus NCIM 5021 assessed as diameter of growth inhibition zone at 100 ug/ml after 24 hr by paper disk diffusion method; details: NCIM 5021, 24 h, read-out: DIZ
# Aspergillus flavus [7] = experiment: Antimicrobial activity against Aspergillus flavus NCIM 524 assessed as diameter of growth inhibition zone at 100 ug/ml after 48 hr by paper disk diffusion method; details: NCIM 524, 48 h, read-out: DIZ
# Aspergillus flavus [8] = experiment: Antimicrobial activity against Aspergillus flavus NCIM 524 assessed as growth inhibition by agar streak dilution method
# Bacillus subtilis [9] = experiment: Antimicrobial activity against Bacillus subtilis NCIM 2999 assessed as diameter of growth inhibition zone at 100 ug/ml after 24 hr by paper disk diffusion method; details: NCIM 2999, 24 h, read-out: DIZ
# [10] = Antioxidant activity assessed as inhibition of Fe3+/ascorbic acid-induced hydroxyl radical production-mediated 2-deoxyribose degradation after 1 hr
# Pseudomonas aeruginosa [11] = experiment: Antimicrobial activity against Pseudomonas aeruginosa NCIM 5029 assessed as growth inhibition by agar streak dilution method
# Escherichia coli [12] = experiment: Antimicrobial activity against Escherichia coli NCIM 2574 assessed as growth inhibition by agar streak dilution method
# [13] = Antioxidant activity assessed as inhibition of NO radical production from sodium nitroprusside after 150 min by Griess reagent analysis
# [14] = Antioxidant activity assessed as inhibition of xanthine-xanthine oxidase generated superoxide anion radical-mediated NBT reduction by spectrophotometric analysis
# Staphylococcus aureus [15] = experiment: Antimicrobial activity against Staphylococcus aureus NCIM 5021 assessed as growth inhibition by agar streak dilution method
# Escherichia coli [16] = experiment: Antimicrobial activity against Escherichia coli NCIM 2574 assessed as diameter of growth inhibition zone at 100 ug/ml after 24 hr by paper disk diffusion method; details: NCIM 2574, 24 h, read-out: DIZ
# Aspergillus flavus [17] = experiment: Antimicrobial activity against Aspergillus flavus NCIM 524 assessed as diameter of growth inhibition zone at 10 ug/disk after 48 hr by paper disk diffusion method; details: NCIM 524, 48 h, read-out: DIZ
# Candida albicans [18] = experiment: Antimicrobial activity against Candida albicans NCIM 3102 assessed as diameter of growth inhibition zone at 10 ug/disk after 48 hr by paper disk diffusion method; details: NCIM 3102, 48 h, read-out: DIZ
# Pseudomonas aeruginosa [19] = experiment: Antimicrobial activity against Pseudomonas aeruginosa NCIM 5029 assessed as diameter of growth inhibition zone at 10 ug/disk after 24 hr by paper disk diffusion method; details: NCIM 5029, 24 h, read-out: DIZ
# Staphylococcus aureus [20] = experiment: Antimicrobial activity against Staphylococcus aureus NCIM 5021 assessed as diameter of growth inhibition zone at 10 ug/disk after 24 hr by paper disk diffusion method; details: NCIM 5021, 24 h, read-out: DIZ
# Escherichia coli [21] = experiment: Antimicrobial activity against Escherichia coli NCIM 2574 assessed as diameter of growth inhibition zone at 10 ug/disk after 24 hr by paper disk diffusion method; details: NCIM 2574, 24 h, read-out: DIZ
# Bacillus subtilis [22] = experiment: Antimicrobial activity against Bacillus subtilis NCIM 2999 assessed as diameter of growth inhibition zone at 10 ug/disk after 24 hr by paper disk diffusion method; details: NCIM 2999, 24 h, read-out: DIZ
Compound,zone of inhibition at 100 µg/mL (Candida albicans [1]),MIC (Candida albicans [2]),zone of inhibition at 100 µg/mL (Pseudomonas aeruginosa [3]),IC50 [4],MIC (Bacillus subtilis [5]),zone of inhibition at 100 µg/mL (Staphylococcus aureus [6]),zone of inhibition at 100 µg/mL (Aspergillus flavus [7]),MIC (Aspergillus flavus [8]),zone of inhibition at 100 µg/mL (Bacillus subtilis [9]),IC50 [10],MIC (Pseudomonas aeruginosa [11]),MIC (Escherichia coli [12]),IC50 [13],IC50 [14],MIC (Staphylococcus aureus [15]),zone of inhibition at 100 µg/mL (Escherichia coli [16]),further results
NC(CCC(=O)n1c(-c2ccc(O)cc2)nc2ccccc2c1=O)C(=O)O (stereo not drawn),9 mm,40 µg/mL,13 mm,14.3 µg/mL,25 µg/mL,13 mm,15 mm,40 µg/mL,9 mm,17.8 µg/mL,50 µg/mL,50 µg/mL,15.2 µg/mL,15.2 µg/mL,25 µg/mL,15 mm,–
OC(Cn1cncn1)(Cn1cncn1)c1ccc(F)cc1F [FLUCONAZOLE],–,5 µg/mL,–,–,–,–,–,5 µg/mL,–,–,–,–,–,–,–,–,zone of inhibition at 10 µg/disc (Aspergillus flavus [17]): 19 mm; zone of inhibition at 10 µg/disc (Candida albicans [18]): 16 mm
NC(CCC(=O)n1c(-c2ccc([N+](=O)[O-])cc2)nc2ccccc2c1=O)C(=O)O (stereo not drawn),14.1 mm,10 µg/mL,11 mm,36.4 µg/mL,12.5 µg/mL,14 mm,13.6 mm,12.5 µg/mL,16 mm,39 µg/mL,25 µg/mL,25 µg/mL,49 µg/mL,–,9.6 µg/mL,9 mm,–
NC(CCC(=O)n1c(-c2ccc(Cl)cc2)nc2ccccc2c1=O)C(=O)O (stereo not drawn),13.6 mm,12 µg/mL,12 mm,37.1 µg/mL,11.2 µg/mL,13 mm,12.1 mm,15 µg/mL,12.7 mm,49 µg/mL,15 µg/mL,15 µg/mL,41.8 µg/mL,41.8 µg/mL,10 µg/mL,11.5 mm,–
NC(CCC(=O)n1c(-c2ccccc2)nc2ccccc2c1=O)C(=O)O (stereo not drawn),14 mm,30 µg/mL,12 mm,29.7 µg/mL,50 µg/mL,11 mm,10 mm,25 µg/mL,11 mm,31.2 µg/mL,75 µg/mL,50 µg/mL,36 µg/mL,–,45 µg/mL,15 mm,–
NC(CCC(=O)n1c(-c2cc(F)cc(F)c2)nc2ccccc2c1=O)C(=O)O (stereo not drawn),11 mm,15 µg/mL,14 mm,27.4 µg/mL,15 µg/mL,11 mm,10.4 mm,25 µg/mL,16 mm,38.1 µg/mL,25 µg/mL,50 µg/mL,–,45.7 µg/mL,13 µg/mL,12 mm,–
NC(CCC(=O)n1c(OCc2ccccc2Cl)nc2ccccc2c1=O)C(=O)O (stereo not drawn),13.7 mm,25 µg/mL,13 mm,26.1 µg/mL,50 µg/mL,12 mm,11 mm,40 µg/mL,14 mm,27.7 µg/mL,50 µg/mL,50 µg/mL,38.7 µg/mL,31.4 µg/mL,30 µg/mL,10 mm,–
COc1ccc(-c2nc3ccccc3c(=O)n2C(=O)CCC(N)C(=O)O)cc1 (stereo not drawn),10 mm,25 µg/mL,13 mm,18.4 µg/mL,50 µg/mL,14 mm,14 mm,15 µg/mL,10 mm,23.4 µg/mL,25 µg/mL,20 µg/mL,20.1 µg/mL,20.1 µg/mL,30 µg/mL,11 mm,–
NC(CCC(=O)n1c(-c2ccc(F)c(F)c2F)nc2ccccc2c1=O)C(=O)O (stereo not drawn),13.6 mm,10 µg/mL,14.8 mm,29.7 µg/mL,8 µg/mL,13.2 mm,14.4 mm,15 µg/mL,13.5 mm,55.1 µg/mL,10 µg/mL,12 µg/mL,–,48.2 µg/mL,8 µg/mL,12.7 mm,–
O=C1O[C@H]([C@@H](O)CO)C(O)=C1O [ASCORBIC ACID],–,–,–,12.6 µg/mL,–,–,–,–,–,–,–,–,–,–,–,–,–
CN[C@@H]1[C@H](O[C@H]2[C@H](O[C@H]3[C@H](O)[C@@H](O)[C@H](N=C(N)N)[C@@H](O)[C@@H]3N=C(N)N)O[C@@H](C)[C@]2(O)C=O)O[C@@H](CO)[C@H](O)[C@H]1O [STREPTOMYCIN],–,–,–,–,5 µg/mL,–,–,–,–,–,5 µg/mL,5 µg/mL,–,–,5 µg/mL,–,zone of inhibition at 10 µg/disc (Pseudomonas aeruginosa [19]): 14 mm; zone of inhibition at 10 µg/disc (Staphylococcus aureus [20]): 14.1 mm; zone of inhibition at 10 µg/disc (Escherichia coli [21]): 16.5 mm; zone of inhibition at 10 µg/disc (Bacillus subtilis [22]): 13.4 mm
NC(CCC(=O)n1c(Cc2ccccc2)nc2ccccc2c1=O)C(=O)O (stereo not drawn),14 mm,100 µg/mL,11 mm,26.6 µg/mL,50 µg/mL,10 mm,10.2 mm,75 µg/mL,7 mm,29.8 µg/mL,> 100 µg/mL,> 100 µg/mL,36.2 µg/mL,31.6 µg/mL,50 µg/mL,11 mm,–
Cc1ccccc1-c1nc2ccccc2c(=O)n1C(=O)CCC(N)C(=O)O (stereo not drawn),12 mm,25 µg/mL,11 mm,24.9 µg/mL,30 µg/mL,11 mm,15 mm,25 µg/mL,12 mm,30.4 µg/mL,30 µg/mL,50 µg/mL,29.1 µg/mL,–,50 µg/mL,10 mm,–
Nc1ccc(-c2nc3ccccc3c(=O)n2C(=O)CCC(N)C(=O)O)cc1 (stereo not drawn),12.5 mm,50 µg/mL,16 mm,17.5 µg/mL,30 µg/mL,10 mm,11 mm,50 µg/mL,13 mm,18 µg/mL,50 µg/mL,50 µg/mL,19.4 µg/mL,–,25 µg/mL,15 mm,–
NC(CCC(=O)n1c(-c2cc(F)ccc2F)nc2ccccc2c1=O)C(=O)O (stereo not drawn),11.4 mm,10 µg/mL,17 mm,34.9 µg/mL,12.5 µg/mL,14 mm,10.9 mm,15 µg/mL,12 mm,41.8 µg/mL,35 µg/mL,30 µg/mL,–,50.8 µg/mL,12.5 µg/mL,11 mm,–
